Legend:
ΔF508-CFTR [1] = molecular target: T1, ΔF508-CFTR (Homo sapiens, UniProt P13569, DEL508-508); test: CFTR cell surface levels using HRP-tagged ΔF508-CFTR expressing CFBE cells, in the presence of a co-corrector; format: cell-based; conditions: HRP-tagged ΔF508-CFTR CFBE cells, in the presence of 3 μM co-corrector; for EC50: read-out: EC50
T1 construct: host or cells: CFBE41o-, doxycycline-inducible
Summary of the method: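 Chemiluminescent read-out of surface HRP (15 min, dark) after PBS washes. Activity is normalized as 100×(sample−DMSO)/(3 μM co-corrector alone−DMSO).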

ΔF508-CFTR [2] = molecular target: T1, ΔF508-CFTR; test: CFTR cell surface levels using HRP-tagged ΔF508-CFTR expressing CFBE cells, intrinsic corrector capacity; format: cell-based; parameters: % Activation: concentration or dose not given beside the values; conditions: HRP-tagged ΔF508-CFTR expressing CFBE41o- cells, compound alone (intrinsic corrector capacity), 20 hours at 33° C.; for EC50: read-out: EC50
Summary of the method: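 Read-out: chemiluminescent HRP activity of ECL4-HRP-tagged ΔF508-CFTR at the cell surface, 15 min substrate in dark. Normalized as 100×(sample−DMSO)/(positive control−DMSO).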

T1 sequence (P13569 with tags, fused parts or gaps DEL508-508): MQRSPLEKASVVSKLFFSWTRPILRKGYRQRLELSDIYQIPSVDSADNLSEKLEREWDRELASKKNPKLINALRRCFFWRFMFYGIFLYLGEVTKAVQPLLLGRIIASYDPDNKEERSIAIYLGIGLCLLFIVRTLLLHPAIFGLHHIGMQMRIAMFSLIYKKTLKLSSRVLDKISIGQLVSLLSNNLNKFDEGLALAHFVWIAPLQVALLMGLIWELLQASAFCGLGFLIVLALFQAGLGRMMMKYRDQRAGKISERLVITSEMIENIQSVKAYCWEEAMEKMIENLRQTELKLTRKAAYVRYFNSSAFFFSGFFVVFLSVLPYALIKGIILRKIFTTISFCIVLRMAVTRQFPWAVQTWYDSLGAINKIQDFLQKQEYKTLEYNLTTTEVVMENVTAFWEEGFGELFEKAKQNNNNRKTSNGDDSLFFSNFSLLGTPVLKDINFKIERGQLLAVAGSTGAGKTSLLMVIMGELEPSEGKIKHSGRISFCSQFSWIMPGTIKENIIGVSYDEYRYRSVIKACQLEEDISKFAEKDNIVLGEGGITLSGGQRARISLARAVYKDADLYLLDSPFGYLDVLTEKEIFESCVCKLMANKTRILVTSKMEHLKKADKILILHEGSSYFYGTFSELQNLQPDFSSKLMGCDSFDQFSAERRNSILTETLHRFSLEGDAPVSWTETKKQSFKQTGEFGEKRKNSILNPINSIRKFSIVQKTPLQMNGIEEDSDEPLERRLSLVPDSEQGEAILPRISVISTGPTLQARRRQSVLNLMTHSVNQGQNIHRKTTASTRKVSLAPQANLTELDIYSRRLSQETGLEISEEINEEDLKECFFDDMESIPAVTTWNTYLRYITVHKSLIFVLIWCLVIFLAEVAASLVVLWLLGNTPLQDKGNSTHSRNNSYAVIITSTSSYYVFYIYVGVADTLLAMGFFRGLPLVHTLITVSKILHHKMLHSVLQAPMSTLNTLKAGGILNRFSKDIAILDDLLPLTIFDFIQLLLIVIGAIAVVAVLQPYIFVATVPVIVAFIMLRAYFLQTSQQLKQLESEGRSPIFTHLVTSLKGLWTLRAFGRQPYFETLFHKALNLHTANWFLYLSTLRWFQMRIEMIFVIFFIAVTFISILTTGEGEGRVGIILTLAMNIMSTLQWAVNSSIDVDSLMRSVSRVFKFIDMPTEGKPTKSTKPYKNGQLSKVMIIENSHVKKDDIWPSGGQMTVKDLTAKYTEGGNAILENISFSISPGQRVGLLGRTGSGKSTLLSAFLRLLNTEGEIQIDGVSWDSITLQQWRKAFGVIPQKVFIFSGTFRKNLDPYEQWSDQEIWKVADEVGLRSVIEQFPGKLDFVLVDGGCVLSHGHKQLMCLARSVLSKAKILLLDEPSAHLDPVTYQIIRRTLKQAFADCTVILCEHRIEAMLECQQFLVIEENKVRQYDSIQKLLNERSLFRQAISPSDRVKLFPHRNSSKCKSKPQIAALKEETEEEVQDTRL

| SMILES | % Activation (ΔF508-CFTR [1]) | EC50 (ΔF508-CFTR [1]) | % Activation (ΔF508-CFTR [2]) | EC50 (ΔF508-CFTR [2]) |
| --- | --- | --- | --- | --- |
| COCCN(C)c1ccc(-c2cc(C(=O)NS(C)(=O)=O)nc3c2c(C(C)C)nn3-c2cccc(C(F)(F)F)c2)cc1 [Compound 132, N-(methanesulfonyl)-4-{4-[(2-methoxyethyl)(methyl)amino]phenyl}-3-(propan-2-yl)-1-[3-(trifluoromethyl)phenyl]-1H-pyrazolo[3,4-b]pyridine-6-carboxamide] | 417.2% | 882 nM | 244% | 1270 nM |
| CC(C)c1nn(-c2cccc(C(F)(F)F)c2)c2nc(C(=O)NS(C)(=O)=O)cc(-c3ccc(N(C)C4CCOCC4)nc3)c12 [Compound 133, N-(methanesulfonyl)-4-{6-[methyl(oxan-4-yl)amino]pyridin-3-yl}-3-(propan-2-yl)-1-[3-(trifluoromethyl)phenyl]-1H-pyrazolo[3,4-b]pyridine-6-carboxamide] | 417.7% | 336 nM | 222.33% | 413 nM |
| CC(C)c1nn(-c2ccc(F)cc2)c2nc(C(=O)NS(C)(=O)=O)cc(-c3cnc(N(C)C4CCOCC4)nc3)c12 [Compound 134, 1-(4-fluorophenyl)-N-(methanesulfonyl)-4-{2-[methyl(oxan-4-yl)amino]pyrimidin-5-yl}-3-(propan-2-yl)-1H-pyrazolo[3,4-b]pyridine-6-carboxamide] | 435.8% | 237 nM | 229.87% | 465 nM |
| CC(C)c1nn(-c2cccc(C(F)(F)F)c2)c2nc(C(=O)NS(C)(=O)=O)cc(-c3ccc(N4CCC(C#N)CC4)cc3)c12 [Compound 135, 4-[4-(4-cyanopiperidin-1-yl)phenyl]-N-(methanesulfonyl)-3-(propan-2-yl)-1-[3-(trifluoromethyl)phenyl]-1H-pyrazolo[3,4-b]pyridine-6-carboxamide] | 512.9% | 373 nM | 299.63% | 696 nM |
| CC1(c2nn(-c3ccccc3)c3nc(C(=O)NS(C)(=O)=O)cc(-c4ccc(N5CCOCC5)cc4)c23)CCC1 [Compound 137, N-(methanesulfonyl)-3-(1-methylcyclobutyl)-4-[4-(morpholin-4-yl)phenyl]-1-phenyl-1H-pyrazolo[3,4-b]pyridine-6-carboxamide] | 339.7% | 638 nM | 131.8% | 1170 nM |
| CCS(=O)(=O)NC(=O)c1cc(-c2ccc(N3CCOCC3)cc2)c2c(C3(C)CCC3)nn(-c3ccccc3)c2n1 [Compound 138, N-(ethanesulfonyl)-3-(1-methylcyclobutyl)-4-[4-(morpholin-4-yl)phenyl]-1-phenyl-1H-pyrazolo[3,4-b]pyridine-6-carboxamide] | 433.83% | 236 nM | 252.9% | 334 nM |
| CC(C)c1nn(-c2ccc(F)cc2F)c2nc(C(=O)NS(C)(=O)=O)cc(-c3cnc(N4CCC(C#N)CC4)nc3)c12 [Compound 139, 4-[2-(4-cyanopiperidin-1-yl)pyrimidin-5-yl]-1-(2,4-difluorophenyl)-N-(methanesulfonyl)-3-(propan-2-yl)-1H-pyrazolo[3,4-b]pyridine-6-carboxamide] | 335.5% | 765 nM | 163.83% | 806 nM |
| CC(C)c1nn(-c2ccc(F)cc2F)c2nc(C(=O)NS(C)(=O)=O)cc(-c3ccc(N4CCC(C#N)CC4)nc3)c12 [Compound 140, 4-[6-(4-cyanopiperidin-1-yl)pyridin-3-yl]-1-(2,4-difluorophenyl)-N-(methanesulfonyl)-3-(propan-2-yl)-1H-pyrazolo[3,4-b]pyridine-6-carboxamide] | 377.9% | 381 nM | 210.3% | 734 nM |
| CC(C)c1nn(-c2ccc(F)cc2F)c2nc(C(=O)NS(C)(=O)=O)cc(-c3ccc(N4CCC(C#N)CC4)cc3)c12 [Compound 141, 4-[4-(4-cyanopiperidin-1-yl)phenyl]-1-(2,4-difluorophenyl)-N-(methanesulfonyl)-3-(propan-2-yl)-1H-pyrazolo[3,4-b]pyridine-6-carboxamide] | 414.63% | 221 nM | 233.07% | 287 nM |
| COC1CCN(c2cc(C(=O)NS(=O)(=O)C3CCS(=O)(=O)C3)nc3c2c(C2CCC2)nn3-c2ccccc2)CC1 (stereo not drawn) [Compound 143, 3-cyclobutyl-N-(1,1-dioxo-1λ^6-thiolane-3-sulfonyl)-4-(4-methoxypiperidin-1-yl)-1-phenyl-1H-pyrazolo[3,4-b]pyridine-6-carboxamide] | 217.8% | 834 nM | 107.15% | 1110 nM |
| CC(C)c1nn(C2CCCOC2)c2nc(C(=O)NS(C)(=O)=O)cc(-c3ccc(N4CCC(C#N)CC4)nc3)c12 (stereo not drawn) [Compound 145, 4-[6-(4-cyanopiperidin-1-yl)pyridin-3-yl]-N-(methanesulfonyl)-1-(oxan-3-yl)-3-(propan-2-yl)-1H-pyrazolo[3,4-b]pyridine-6-carboxamide] | 271.43% | 636 nM | 112.03% | 1040 nM |
| COC1CCN(c2cc(C(=O)NS(=O)(=O)CCC(F)(F)F)nc3c2c(C2CCC2)nn3-c2ccccc2)CC1 [Compound 147, 3-cyclobutyl-4-(4-methoxypiperidin-1-yl)-1-phenyl-N-(3,3,3-trifluoropropane-1-sulfonyl)-1H-pyrazolo[3,4-b]pyridine-6-carboxamide] | 363.93% | 99.9 nM | 176.47% | 359 nM |
| Cc1cccc(-n2nc(C(C)C)c3c(N4CCC5(C4)CC5(F)F)cc(C(=O)NS(C)(=O)=O)nc32)c1 (stereo not drawn) [Compound 149, 4-(1,1-difluoro-5-azaspiro[2.4]heptan-5-yl)-N-(methanesulfonyl)-1-(3-methylphenyl)-3-(propan-2-yl)-1H-pyrazolo[3,4-b]pyridine-6-carboxamide] | 299.95% | 259 nM | 122.3% | 386 nM |
| CC(C)OC1CCN(c2cc(C(=O)NS(C)(=O)=O)nc3c2c(C2CCC2)nn3-c2ccccc2)CC1 [Compound 151, 3-cyclobutyl-N-(methanesulfonyl)-1-phenyl-4-{4-[(propan-2-yl)oxy]piperidin-1-yl}-1H-pyrazolo[3,4-b]pyridine-6-carboxamide] | 387.15% | 109 nM | 228.95% | 347 nM |
| COCC1CCCN(c2cc(C(=O)NS(C)(=O)=O)nc3c2c(C2CCC2)nn3-c2ccccc2)C1 (stereo not drawn) [Compound 153, 3-cyclobutyl-N-(methanesulfonyl)-4-[3-(methoxymethyl)piperidin-1-yl]-1-phenyl-1H-pyrazolo[3,4-b]pyridine-6-carboxamide] | 290.05% | 130 nM | 146.7% | 355 nM |
| CS(=O)(=O)NC(=O)c1cc(N2CCC(OCC(=O)N3CCCC3)CC2)c2c(C3CCC3)nn(-c3ccccc3)c2n1 [Compound 154, 3-cyclobutyl-N-(methanesulfonyl)-4-{4-[2-oxo-2-(pyrrolidin-1-yl)ethoxy]piperidin-1-yl}-1-phenyl-1H-pyrazolo[3,4-b]pyridine-6-carboxamide] | 447.85% | 203 nM | 275.65% | 533 nM |
| COCC1CCN(c2cc(C(=O)NS(C)(=O)=O)nc3c2c(C(C)C)nn3-c2cccc(C)c2)CC1 [Compound 156, N-(methanesulfonyl)-4-[4-(methoxymethyl)piperidin-1-yl]-1-(3-methylphenyl)-3-(propan-2-yl)-1H-pyrazolo[3,4-b]pyridine-6-carboxamide] | 636.47% | 360 nM | 411% | 439 nM |
| CC(C)c1nn(-c2cccc(N(C)C)c2)c2nc(C(=O)NS(C)(=O)=O)cc(N3CCCCC3)c12 [Compound 157, 1-[3-(dimethylamino)phenyl]-N-(methanesulfonyl)-4-(piperidin-1-yl)-3-(propan-2-yl)-1H-pyrazolo[3,4-b]pyridine-6-carboxamide] | 542.17% | 359 nM | 327.8% | 460 nM |
| CS(=O)(=O)NC(=O)c1cc(N2CCC3(CCO3)CC2)c2c(C3CCC3)nn(-c3ccccc3)c2n1 [Compound 159, 3-cyclobutyl-N-(methanesulfonyl)-4-(1-oxa-7-azaspiro[3.5]nonan-7-yl)-1-phenyl-1H-pyrazolo[3,4-b]pyridine-6-carboxamide] | 270.3% | 483 nM | 103.02% | 661 nM |
| COCCC1CCN(c2cc(C(=O)NS(C)(=O)=O)nc3c2c(C(C)C)nn3-c2cccc(C)c2)CC1 [Compound 161, N-(methanesulfonyl)-4-[4-(2-methoxyethyl)piperidin-1-yl]-1-(3-methylphenyl)-3-(propan-2-yl)-1H-pyrazolo[3,4-b]pyridine-6-carboxamide] | 574.1% | 355 nM | 406.4% | 730 nM |
| COC1CCCN(c2cc(C(=O)NS(C)(=O)=O)nc3c2c(C(C)C)nn3-c2cccc(C)c2)C1 (stereo not drawn) [Compound 162, N-(methanesulfonyl)-4-(3-methoxypiperidin-1-yl)-1-(3-methylphenyl)-3-(propan-2-yl)-1H-pyrazolo[3,4-b]pyridine-6-carboxamide] | 331.53% | 304 nM | 169% | 445 nM |

Reference: US10259810B2, “N-sulfonylated pyrazolo[3,4-b]pyridin-6-carboxamides and method of use” (AbbVie S.à.r.l., priority 2015, dated 2019)
